In patent publication US20030064936A1 (priority 2001, published 2003):

Assays:
[1] = molecular target: recombinant ceramidase from Pseudomonas aeruginosa PA01 (Pseudomonas aeruginosa, UniProt Q9I596); assay: Inhibition of recombinant Pseudomonas aeruginosa PA01 ceramidase, quenched fluorescent ceramide analog substrate; format: biochemical; conditions: for capability of inhibiting Pseudomonas aeruginosa ceramidase: known human ceramidase inhibitors, various concentrations, assay buffer containing 20 μM of substrate; for ceramidase inhibition ability, comparison in words: comparison among examples 1-9
Protocol: The effect of various active compounds on the enzymatic activity of recombinant ceramidase from Pseudomonas aeruginosa PA01 was tested.
The assays were performed at 25° C., with magnetic stirring, using Photo Technology International fluorimeter equipped with a LPS 220 Lamp Power Supply, a 810 Photomultiplier Detector System, a MD 5020 Motor Driver, and a Dell Dimensions M166a computer with FELIX® software. Excitation was done at 346 nm (±2 nm) and the emission was measured at 378 nm (±2 nm).The assay buffer consisted of 50 mM Tris/HCl, 4 mM CaCl2, 0.1% w/v Triton X-100, pH 8.5.
The active compounds were dissolved in DMF (dimethylformamide) to a concentration of 4 mM. Of these solutions, 250 μliter was added to 50 milliliter assay buffer under vortex, yielding 20 μM lipid solutions.
To 1 mL of the lipid solution in a cuvet, 5 μL of quenched fluorescent ceramide analog as a substrate was added (end concentration 2 μM) and the system was allowed to equilibrate for 5 minutes. Then 5 μL of recombinant ceramidase was added (end concentration 4.3 nM). The reaction was allowed to proceed for 20 minutes. The slope at 378 nm was used to determine the reaction rate.
Control experiments were done in the absence of sphingolipids, with corresponding amounts of DMF (0.5% v/v for the 20 μM samples). The reaction rate of the controls was set at 100%. The percentages in the table are given as % of inhibition (control value—reaction rate of the sample).
The potential of several known human ceramidase inhibiting compounds of inhibiting Pseudomonas aeruginosa PA01 ceramidase was tested at various concentrations, in the assay buffer containing 20 μM of substrate.
The potential of several ceramide and sphingoid bases of inhibiting Pseudomonas aeruginosa PA01 ceramidase was tested at a pH of 8.5, using respectively, 2 μM and 20 μM of ceramidase substrate, 1.6 mM Triton X-100 and 4 mM of CaCl2.

[2] = system: ceramidase originating from guinea pig epidermis; conditions: in vitro; cited from earlier work
[3] = molecular target: T1, human alkaline ceramidase (aPHC) (Homo sapiens, UniProt Q9NUN7); conditions: in vitro and in cells; cited from earlier work
T1 construct: host or cells: yeast mutant strain (as cited)
T1 sequence (Q9NUN7 1-267): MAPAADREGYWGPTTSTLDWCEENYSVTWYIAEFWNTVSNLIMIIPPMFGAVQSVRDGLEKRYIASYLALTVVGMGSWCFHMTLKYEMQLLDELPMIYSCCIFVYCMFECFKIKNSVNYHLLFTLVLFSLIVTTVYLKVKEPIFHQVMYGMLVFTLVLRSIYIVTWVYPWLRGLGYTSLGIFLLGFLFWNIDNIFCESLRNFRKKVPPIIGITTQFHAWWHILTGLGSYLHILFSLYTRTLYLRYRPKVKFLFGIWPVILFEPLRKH

[4] = molecular target: T2, ceramidase originating from mitochondria of rat brain (Rattus norvegicus, UniProt Q91XT9); conditions: cited from earlier work
T2 construct: host or cells: rat brain mitochondria

[5] = 20 μM active compound, pH 8.5, 25° C., 4 mM CaCl2, Triton X-100, control rate = 100%

Sequence of recombinant ceramidase from Pseudomonas aeruginosa PA01 (Q9I596 25-670): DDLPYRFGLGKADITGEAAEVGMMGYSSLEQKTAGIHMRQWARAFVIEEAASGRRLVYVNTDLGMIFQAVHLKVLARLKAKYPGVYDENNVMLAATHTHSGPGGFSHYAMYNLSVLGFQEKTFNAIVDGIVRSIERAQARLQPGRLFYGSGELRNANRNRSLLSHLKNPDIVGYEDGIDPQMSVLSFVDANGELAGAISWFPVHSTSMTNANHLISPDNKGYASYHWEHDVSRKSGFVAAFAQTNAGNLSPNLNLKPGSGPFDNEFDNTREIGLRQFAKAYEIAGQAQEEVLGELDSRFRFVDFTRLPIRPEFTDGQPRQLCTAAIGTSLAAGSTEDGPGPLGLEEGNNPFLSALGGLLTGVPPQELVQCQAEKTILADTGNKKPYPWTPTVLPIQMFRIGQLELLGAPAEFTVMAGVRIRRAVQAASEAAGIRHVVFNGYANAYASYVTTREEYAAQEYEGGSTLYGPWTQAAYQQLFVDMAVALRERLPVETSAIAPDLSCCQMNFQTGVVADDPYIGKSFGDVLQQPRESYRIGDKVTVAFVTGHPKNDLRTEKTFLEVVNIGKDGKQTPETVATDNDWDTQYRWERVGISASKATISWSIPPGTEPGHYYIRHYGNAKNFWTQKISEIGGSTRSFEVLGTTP
T2 sequence (Q91XT9 whole entry): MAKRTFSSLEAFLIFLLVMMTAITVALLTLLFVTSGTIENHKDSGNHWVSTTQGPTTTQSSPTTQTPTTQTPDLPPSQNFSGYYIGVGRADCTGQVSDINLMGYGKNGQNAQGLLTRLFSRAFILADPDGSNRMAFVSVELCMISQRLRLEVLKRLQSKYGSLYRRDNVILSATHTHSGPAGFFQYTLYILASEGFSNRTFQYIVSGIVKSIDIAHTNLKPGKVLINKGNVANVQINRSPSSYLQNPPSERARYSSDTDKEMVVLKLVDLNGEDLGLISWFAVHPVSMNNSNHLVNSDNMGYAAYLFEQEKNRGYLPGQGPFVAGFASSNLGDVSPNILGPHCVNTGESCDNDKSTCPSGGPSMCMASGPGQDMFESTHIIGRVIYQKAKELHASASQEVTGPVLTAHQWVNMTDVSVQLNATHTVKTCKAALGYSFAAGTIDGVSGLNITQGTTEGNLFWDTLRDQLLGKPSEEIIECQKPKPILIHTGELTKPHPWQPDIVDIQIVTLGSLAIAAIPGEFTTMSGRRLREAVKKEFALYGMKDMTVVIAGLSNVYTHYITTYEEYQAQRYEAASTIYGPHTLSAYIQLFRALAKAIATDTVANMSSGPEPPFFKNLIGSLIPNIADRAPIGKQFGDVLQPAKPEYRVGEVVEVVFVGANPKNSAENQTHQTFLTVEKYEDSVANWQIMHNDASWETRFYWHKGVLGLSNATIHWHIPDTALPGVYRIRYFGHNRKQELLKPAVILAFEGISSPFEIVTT

SMILES | capability of inhibiting Pseudomonas aeruginosa ceramidase [1] | % of inhibition [1, 5] [%] | also measured
CCCCCCCCCCCCCC(=O)N[C@@H](C)[C@H](O)c1ccccc1 [L-erythro-MAPP, reference compound] | None of these compounds was found capable of inhibiting |  | 
CCCCCCCCCCCCCC(=O)N[C@H](C)[C@@H](O)c1ccccc1 [D-erytro-MAPP, (1S,2R)-D-erythro-2-(N-myristoylamino)-1-phenyl-1-propanol, reference compound] | None of these compounds was found capable of inhibiting |  | 
CCCCCCCCCCCCC/C=C/[C@@H](O)[C@@H](N)CO [sphingosine] |  |  | inhibition of ceramidase [2]: inhibiting ceramidase; inhibition of human alkaline ceramidase [3]: inhibited by sphingosine; inhibition of ceramidase [4]: capable of inhibiting ceramidase
C[C@H](N)[C@H](O)c1ccccc1 [L(−)-norephenidrin, reference compound] | None of these compounds was found capable of inhibiting |  | 
C[C@@H](N)[C@@H](O)c1ccccc1 [D(+)-norephenidrin, reference compound] | None of these compounds was found capable of inhibiting |  | 
CCCCCCCC/C=C\CCCCCCCC(=O)NCCO [N-oleoylethanolamine, reference compound] | None of these compounds was found capable of inhibiting |  | 
CCCCCCCCCCCCC/C=C/[C@H](O)[C@H](N)CO [L—erythro—sphingosine] |  | 20 | 
CCCCCCCCCCCCCC[C@@H](O)[C@@H](O)[C@@H](N)CO.Cl [Phytosphingosine.HCl] |  | 67 | % of inhibition ([1]; 2 μM active compound, pH 8.5, 25° C., 4 mM CaCl2, Triton X-100, control rate = 100%): 15%; ceramidase inhibition ability, comparison in words [1]: better ceramidase inhibiting effect than phytosphingosine
CCCCCCCCCCCCCC[C@@H](O)[C@@H](O)[C@H](CO)NC(C)=O [MAPS, N-monoacetyl phytosphingosine] |  | 35 | 
CCCCCCCCCCCCCCC[C@H](O)[C@H](N)CO [D/L sphinganine] |  | 83 | 
CCCCCCCCCCCCCC[C@@H](O)[C@@H](O)[C@H](CO)NC(C)=O [N—acetyl—phytosphingosine] |  | 9 | 
CCCCCCCCCCCCCC[C@@H](O)[C@@H](O)[C@@H](N)CO [Phytosphingosine] |  |  | inhibition at 2 µM ([1]; pH 8.5, 2 μM active compound, pH 8.5, 25° C., 4 mM CaCl2, Triton X-100, control rate = 100%): 7.5%; inhibition at 20 µM ([1]; pH 8.5, read-out: % of inhibition, 20 μM active compound, pH 8.5, 25° C., 4 mM CaCl2, Triton X-100, control rate = 100%): 60%
CCCCCCCCCCCCC/C=C/[C@@H](O)[C@@H](N)CO [D—erythro—sphingosine] |  | 97 | ceramidase inhibition ability, comparison in words [1]: highest ceramidase inhibition ability
CCCCCCCCCCCCCCC(OC(C)=O)C(OC(C)=O)C(COC(C)=O)NC(C)=O (stereo not drawn) [TAPS, tetraacetyl-phytosphingosine] |  | 22 | 
CCCCCCCCCCCCCCCCC(O)C(=O)N[C@@H](CO)[C@H](O)[C@H](O)CCCCCCCCCCCCCC (stereo partly drawn) [Ceramide VI] |  | 11 | 
